Data as given in paper PMC12745320 (2025).

Assays:
[1] = test system: PTL-1 (DNA, aptamer) GACGACGGCCAAGCTAACGGCTGCTAAGCATGTGGAGTCGTC; test: ThT fluorescence; settings: 150 mM NaCl, 5 mM MgCl2 (main text; supplement: 2.0 mM MgCl2); 10 mM MES (supplement: 20 mM), pH 6.0; 1.0 μM aptamer, 2.0 μM ThT; described as non-specific binding
[2] = test system: PTL-1 (DNA, aptamer) GACGACGGCCAAGCTAACGGCTGCTAAGCATGTGGAGTCGTC; test: ThT fluorescence displacement; settings: 150 mM NaCl, 5 mM MgCl2 (main text; supplement: 2.0 mM MgCl2); 10 mM MES (supplement: 20 mM), pH 6.0; ThT displaced; tested at 200 μM
[3] = test system: PTL-1 (DNA, aptamer) GACGACGGCCAAGCTAACGGCTGCTAAGCATGTGGAGTCGTC; test: ITC; settings: 150 mM NaCl, 5 mM MgCl2 (main text; supplement: 2.0 mM MgCl2); 10 mM MES (supplement: 20 mM), pH 6.0, 25 °C; 20 μM aptamer
[4] = test system: PTL-1a (DNA, aptamer) GACGACTCCAAGAATCCGGCTGCTAAGCATGTGGAGTCGTC; test: ITC; settings: 150 mM NaCl, 5 mM MgCl2 (main text; supplement: 2.0 mM MgCl2); 10 mM MES (supplement: 20 mM), pH 6.0, 25 °C; typically 1.0 mM PTL in syringe
[5] = test system: PTL-1b (DNA, aptamer) GACGACGGCGAAGCTAACGGCTGCTAAGCATGTCGAGTCGTC; test: ITC; settings: 150 mM NaCl, 5 mM MgCl2 (main text; supplement: 2.0 mM MgCl2); 10 mM MES (supplement: 20 mM), pH 6.0, 25 °C; typically 1.0 mM PTL in syringe
[6] = test system: PTL-1c (DNA, aptamer) GACGACGGCCAAGAATCCGGCTGCTAAGCATGTGGAGTCGTC; test: ITC; settings: 150 mM NaCl, 5 mM MgCl2 (main text; supplement: 2.0 mM MgCl2); 10 mM MES (supplement: 20 mM), pH 6.0, 25 °C; typically 1.0 mM PTL in syringe
[7] = test system: PTL-1 (DNA, aptamer) GACGACGGCCAAGCTAACGGCTGCTAAGCATGTGGAGTCGTC; test: ThT fluorescence displacement titration; settings: 150 mM NaCl, 5 mM MgCl2 (main text; supplement: 2.0 mM MgCl2), 10 mM MES (supplement: 20 mM), pH 6.0, ThT 2.0 μM displaced, 1.0 μM aptamer

SMILES	binding [2]	other results
Cc1ccc2c(c1)sc(-c1ccc(N(C)C)cc1)[n+]2C		binding [1]: yes
O=C(N[C@H](CO)[C@H](O)c1ccc([N+](=O)[O-])cc1)C(Cl)Cl	no	
C[C@H]1CCCC(=O)CCC/C=C/c2cc(O)cc(O)c2C(=O)O1	no	
CC1(C)S[C@@H]2[C@H](NC(=O)Cc3ccccc3)C(=O)N2[C@H]1C(=O)O	no	
COc1cc(NS(=O)(=O)c2ccc(N)cc2)nc(OC)n1	no	
C[C@@H]1Cc2c(Cl)cc(C(=O)N[C@@H](Cc3ccccc3)C(=O)O)c(O)c2C(=O)O1	no	
C[C@@H]1C[C@H]2[C@@H]3CCC4=CC(=O)C=C[C@]4(C)[C@@]3(F)[C@@H](O)C[C@]2(C)[C@@]1(O)C(=O)CO	no	
CS(=O)(=O)c1ccc([C@@H](O)[C@@H](CO)NC(=O)C(Cl)Cl)cc1	no	
CC1(C)S[C@@H]2[C@H](NC(=O)[C@H](N)c3ccccc3)C(=O)N2[C@H]1C(=O)O	no	
NC(=O)N1c2ccccc2C=Cc2ccccc21	no	
CCCC[C@@H](C)[C@@H](OC(=O)C[C@@H](CC(=O)O)C(=O)O)[C@H](C[C@@H](C)C[C@H](O)CCCC[C@@H](O)C[C@H](O)[C@H](C)N)OC(=O)C[C@@H](CC(=O)O)C(=O)O	no	
O=C1C=C2C(=CCOC2O)O1 (stereo not shown)		Kd [3]: 12.5 µM; binding [4]: no; binding [5]: no; binding [6]: no; apparent Kd [7]: 18.4 µM
Nc1ccc(S(=O)(=O)Nc2cnc3ccccc3n2)cc1	no	
C=C1[C@@H](O)[C@@H]2O[C@]3(CC[C@H](/C=C/[C@@H](C)[C@@H]4CC(C)=C[C@@]5(O[C@H](C[C@@](C)(O)C(=O)O)CC[C@H]5O)O4)O3)CC[C@H]2O[C@@H]1[C@@H](O)C[C@H](C)[C@H]1O[C@@]2(CCCCO2)CC[C@H]1C	no	
Cc1ncc([N+](=O)[O-])n1CCO	no	
